Test results reported in PubChem BioAssay (NCI).
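Assay format: 96-well plates, 48-hour exposure. Definition used: TGI = concentration required for complete inhibition of growth.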

How the values were obtained:
Experiment in all cases: NCI tumour cell line growth inhibition, 48 h
786-0 renal = tested on: 786-0 renal
A498 renal = tested on: A498 renal
A549 NSCLC = tested on: A549 NSCLC
ACHN renal = tested on: ACHN renal
BT-549 breast = tested on: BT-549 breast
CAKI-1 renal = tested on: CAKI-1 renal
CCRF-CEM leukemia = tested on: CCRF-CEM leukemia
COLO 205 colon = tested on: COLO 205 colon
DU-145 prostate = tested on: DU-145 prostate
EKVX NSCLC = tested on: EKVX NSCLC
HCT-116 colon = tested on: HCT-116 colon
HCT-15 colon = tested on: HCT-15 colon
HL-60(TB) leukemia = tested on: HL-60(TB) leukemia
HOP-62 NSCLC = tested on: HOP-62 NSCLC
HOP-92 NSCLC = tested on: HOP-92 NSCLC
HS 578T breast = tested on: HS 578T breast
HT29 colon = tested on: HT29 colon
IGROV1 ovarian = tested on: IGROV1 ovarian
K-562 leukemia = tested on: K-562 leukemia
KM12 colon = tested on: KM12 colon
LOX IMVI melanoma = tested on: LOX IMVI melanoma
M14 melanoma = tested on: M14 melanoma
MALME-3M melanoma = tested on: MALME-3M melanoma
MCF7 breast = tested on: MCF7 breast
MDA-MB-231 breast = tested on: MDA-MB-231 breast
MDA-MB-435 = tested on: MDA-MB-435
MDA-N = tested on: MDA-N
MOLT-4 leukemia = tested on: MOLT-4 leukemia
NCI-H226 lung = tested on: NCI-H226 lung
NCI-H23 lung = tested on: NCI-H23 lung
NCI-H460 lung = tested on: NCI-H460 lung
NCI-H522 lung = tested on: NCI-H522 lung
NCI/ADR-RES ovarian = tested on: NCI/ADR-RES ovarian
OVCAR-3 ovarian = tested on: OVCAR-3 ovarian
OVCAR-4 ovarian = tested on: OVCAR-4 ovarian
OVCAR-5 ovarian = tested on: OVCAR-5 ovarian
OVCAR-8 ovarian = tested on: OVCAR-8 ovarian
PC-3 prostate = tested on: PC-3 prostate
RPMI-8226 leukemia = tested on: RPMI-8226 leukemia
RXF 393 renal = tested on: RXF 393 renal
SF-268 CNS = tested on: SF-268 CNS
SF-295 CNS = tested on: SF-295 CNS
SF-539 CNS = tested on: SF-539 CNS
SK-MEL-2 melanoma = tested on: SK-MEL-2 melanoma
SK-MEL-28 melanoma = tested on: SK-MEL-28 melanoma
SK-MEL-5 melanoma = tested on: SK-MEL-5 melanoma
SK-OV-3 ovarian = tested on: SK-OV-3 ovarian
SN12C renal = tested on: SN12C renal
SNB-75 CNS = tested on: SNB-75 CNS
SR leukemia = tested on: SR leukemia
SW-620 colon = tested on: SW-620 colon
T-47D breast = tested on: T-47D breast
TK-10 renal = tested on: TK-10 renal
U251 CNS = tested on: U251 CNS
UACC-257 melanoma = tested on: UACC-257 melanoma
UACC-62 melanoma = tested on: UACC-62 melanoma
UO-31 renal = tested on: UO-31 renal
DLD-1 colon = tested on: DLD-1 colon
DMS 114 small cell lung = tested on: DMS 114 small cell lung
DMS 273 small cell lung = tested on: DMS 273 small cell lung
HCC-2998 colon = tested on: HCC-2998 colon
KM20L2 colon = tested on: KM20L2 colon
LXFL 529 NSCLC = tested on: LXFL 529 NSCLC
M19-MEL melanoma = tested on: M19-MEL melanoma
SNB-19 CNS = tested on: SNB-19 CNS
SNB-78 CNS = tested on: SNB-78 CNS
HOP-18 NSCLC = tested on: HOP-18 NSCLC

Measured: TGI

O=CC(O)C(O)C(O)C1CNC(=S)O1 (stereo unspecified)
not listed: DLD-1 colon | DMS 114 small cell lung | DMS 273 small cell lung | HCC-2998 colon | KM20L2 colon | LXFL 529 NSCLC | M19-MEL melanoma | SNB-19 CNS | SNB-78 CNS | HOP-18 NSCLC
> 100 µM: all other assays above

COC(=O)C1C(=O)CC2CCCCC21 (stereo unspecified)
not listed: BT-549 breast | DU-145 prostate | EKVX NSCLC | HOP-92 NSCLC | HS 578T breast | HT29 colon | LOX IMVI melanoma | MCF7 breast | MDA-MB-231 breast | MDA-MB-435 | MDA-N | NCI-H23 lung | NCI/ADR-RES ovarian | OVCAR-5 ovarian | OVCAR-8 ovarian | PC-3 prostate | SF-295 CNS | T-47D breast | HOP-18 NSCLC
> 100 µM: all other assays above

O=C1C[C@@H]2[C@@H](CCC23CC3)N1
not listed: ACHN renal | BT-549 breast | DU-145 prostate | HCT-15 colon | HOP-92 NSCLC | HS 578T breast | MCF7 breast | MDA-MB-231 breast | MDA-MB-435 | MDA-N | MOLT-4 leukemia | NCI/ADR-RES ovarian | PC-3 prostate | SR leukemia | T-47D breast
> 100 µM: all other assays above

COc1ccc2c(c1)CC[C@@H]1C2CC[C@](C)(C#N)C1CC#N (stereo partly specified)
not listed: A549 NSCLC | BT-549 breast | CAKI-1 renal | DU-145 prostate | EKVX NSCLC | HCT-15 colon | HL-60(TB) leukemia | HS 578T breast | LOX IMVI melanoma | MCF7 breast | MDA-MB-231 breast | MDA-MB-435 | MDA-N | NCI-H226 lung | NCI/ADR-RES ovarian | OVCAR-8 ovarian | PC-3 prostate | SF-539 CNS | SK-MEL-2 melanoma | SK-MEL-5 melanoma | SN12C renal | SW-620 colon | T-47D breast | TK-10 renal | DLD-1 colon | DMS 273 small cell lung | HCC-2998 colon | HOP-18 NSCLC
> 100 µM: all other assays above
